Consider 16 compounds from PubChem BioAssay (NCI).

Each structure is given as a SMILES string. “And” between values parts separate entries of the source, which are not always exact repeats. Equal values may be shown once.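 Five concentrations, 48 hours, 96-well plates. At the TGI there is no net growth.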

What all share (assay): NCI tumour cell line growth inhibition, 48 h
Test [1] relates to SF-295 CNS.
Test [2] concerns HCC-2998 colon.
For test [3], the system named is HOP-92 NSCLC.
Test [4] concerns HL-60(TB) leukemia.
The test system of test [5] is NCI-H226 lung.
Test [6] relates to SF-268 CNS.
Test [7] has as its system MOLT-4 leukemia.
The test system of test [8] is U251 CNS.
Test [9] has as its system OVCAR-4 ovarian.
The subject of test [10] is TK-10 renal.
Test [11] relates to CAKI-1 renal.
Test [12] relates to UACC-257 melanoma.
The test system of test [13] is SNB-75 CNS.
The subject of test [14] is K-562 leukemia.
Test [15] deals with MDA-MB-435.
In test [16] the test system is OVCAR-3 ovarian.
The subject of test [17] is A549 NSCLC.
For test [18], the system named is IGROV1 ovarian.
For test [19], the system named is SK-OV-3 ovarian.
In test [20] the test system is BT-549 breast.

Turning to `CC(C)(C)C(=O)C(C(=O)C(C)(C)C)C(=O)C(C)(C)C`, the TGI in test [1], in test [2], in test [3], in test [4], in test [5] and in [6] was above 100 µM each time. For the same compound, the TGI in test [7], in test [8], in [9], in test [10], in test [11] and in [12] was above 100 µM in each case. Also, the TGI in [13], in test [14], in [15], in [16], in test [17] and in test [18] was above 100 µM throughout. The TGI in test [19] was above 100 µM.

With `CNC(=O)c1n[nH]nc1Sc1c([N+](=O)[O-])ncn1C`, the TGI in [1], in [2], in test [3], in [6], in [7] and in test [8] was above 100 µM in each case. The TGI in test [9], in [10], in test [11], in test [12], in test [14] and in [15] was above 100 µM each time. Further, the TGI in test [20], in test [16], in [17], in test [18] and in test [19] was above 100 µM throughout.

Regarding `Cn1nc2ccc3nccc(N4CCN(CCO)CC4)c3c2n1`, the TGI in [1], in test [2], in [5], in test [6], in [7] and in [8] was above 100 µM in each case. Besides, the TGI in [9], in [10], in test [12], in test [13], in test [14] and in [15] was above 100 µM in each case. Also, the TGI in [20], in [16], in [17], in test [18] and in test [19] was above 100 µM throughout.

On to `COc1ccc2nc3ccc(OC)cc3c(SCc3ccc([N+](=O)[O-])cc3)c2c1`, for which the TGI in [1], in test [2], in test [3], in test [4], in test [5] and in test [6] was above 100 µM each time. Further, the TGI was above 100 µM in test [7]; 69.6 µM in test [9]; above 100 µM in test [10]; above 100 µM in test [11]; above 100 µM in test [12]; above 100 µM in [13]. Moreover, the TGI in [14], in test [15], in [16], in test [17], in test [18] and in test [19] was above 100 µM each time.

Regarding `CC(=O)OCC1OC(n2c(-c3ccccc3)c(C(C)=O)c(-c3ccc(Cl)cc3)c(C#N)c2=S)C(OC(C)=O)C(OC(C)=O)C1OC(C)=O` (centres undefined), the TGI was above 100 µM in [1]; above 100 µM in [2]; 71.5 µM in test [3]; above 100 µM in [4]; above 100 µM in test [5]; above 100 µM in [6]. The TGI in test [7], in [8], in test [9], in test [10], in test [11] and in test [12] was above 100 µM throughout. Also, the TGI in test [13], in [14], in [15], in test [16], in test [17] and in test [18] was above 100 µM in each case. Also, in test [19], the TGI is above 100 µM.

For `O=C1C(N2CCNCC2)=C(Cl)C(=O)c2ncccc21`, the TGI in test [1] was above 10 µM; in test [2], above 10 µM; in [3], 7.82 µM; in test [5] it was above 10 µM; in [6] it was above 10 µM; in test [7], above 10 µM. The TGI in test [8], in test [9], in test [10], in test [11], in [12] and in test [13] was above 10 µM each time. The TGI in test [14], in test [15], in test [20], in test [16], in test [17] and in [18] was above 10 µM in each case. The TGI in test [19] is above 10 µM.

Regarding `OC1(c2ccccc2)CC2CCC(C1)N2CCCC1(c2ccc(F)cc2)OCCO1` (centres undefined), the TGI was 10.9 µM in test [1]; above 100 µM in [4]; above 100 µM in test [6]; above 100 µM in test [7]; above 100 µM in test [8]; above 100 µM in test [9]. Further, the TGI is above 100 µM in test [10]; above 100 µM in [11]; 73.5 µM in test [12]; above 100 µM in test [13]; above 100 µM in test [14]; above 100 µM in [15]. The TGI in [20], in test [16], in test [17], in test [18] and in test [19] was above 100 µM each time.

As for `O=C(O)CN1CCN2CCOCCOCCN(CC1)CCN(CC(=O)O)CC2`, the TGI in test [1], in test [3], in [5], in test [8], in test [9] and in [10] was above 100 µM in each case. Moreover, the TGI in [11], in test [12], in [13], in test [14], in test [15] and in [20] was above 100 µM each time. In addition, the TGI in test [16], in [17], in test [18] and in [19] was above 100 µM throughout.

On to `CS/C1=C(\c2ccc(C)cc2)N(c2ccccc2)C(=O)C(=O)N(c2ccccc2)/C(c2ccc(C)cc2)=C(/SC)SS1`, for which the TGI in [1], in [2], in [3], in test [4], in test [6] and in test [7] was above 100 µM in each case. The TGI in test [8], in test [9], in test [10], in test [11], in [12] and in test [13] was above 100 µM in each case. Further, the TGI in [14], in test [15], in test [16] and in test [18] was above 100 µM in each case.

Turning to `FC(F)(Sc1ccccn1)c1nc2ccccc2o1`, the TGI in [1], in test [2], in test [3], in test [5], in test [6] and in test [7] was above 100 µM each time. Also, the TGI in test [8], in test [9], in test [10], in test [11], in test [12] and in test [14] was above 100 µM in each case. The TGI in [15], in test [20], in test [16], in test [17], in test [18] and in test [19] was above 100 µM each time.

For `c1ccc2c(c1)nc1n2CCCn2ccnc2-1`, the TGI in test [1] is above 100 µM; in test [3] it was above 100 µM; in [4] it was 0.597 µM; in test [5], above 100 µM; in test [6], above 100 µM; in test [7], above 100 µM. The TGI in [8], in [9], in test [13], in test [14], in test [20] and in [16] was above 100 µM in each case. In addition, the TGI was above 100 µM in test [17], above 100 µM in test [18] and 9.03 µM in [19].

Consider `COc1cc(C)c(/C=C/C(=O)N2C(=O)OC[C@@H]2c2ccccc2)c(C)c1`, for which the TGI in test [1], in [2], in test [3], in test [4], in test [5] and in test [6] was above 100 µM throughout. The TGI in [7] is 85.8 µM; in [8], above 100 µM; in test [9], above 100 µM; in test [10] it was above 100 µM; in test [11], above 100 µM; in test [12] it was above 100 µM. In addition, the TGI in test [13], in [14], in test [15], in test [16], in test [17] and in test [18] was above 100 µM each time. The same compound showed a TGI in test [19] above 100 µM.

With `CC(C)(C)OC(=O)c1cnc(Cl)cn1`, the TGI in test [1] is above 100 µM; in test [3], 18.4 µM; in test [5] it was above 100 µM; in test [6] it was above 100 µM; in [7], above 100 µM; in test [8], above 100 µM. Further, the TGI in test [9] is 91.9 µM; in test [10], above 100 µM; in test [11], 16.6 µM; in test [12], above 100 µM; in test [13], above 100 µM; in test [14], above 100 µM. Also, the TGI in test [15] is above 100 µM; in test [20], above 100 µM; in test [17] it was above 100 µM; in test [18], 44.7 µM; in test [19], above 100 µM.

As for `CC(=O)OCC(OC(C)=O)C(OC(C)=O)C(OC(C)=O)C(C=NN(C(C)=O)S(=O)(=O)c1ccc(/C=C2\NC(=O)N(C)C2=O)cc1)OC(C)=O` (centres undefined), the TGI in test [1] was above 100 µM; in test [2], 32 µM and > 100 µM; in [5], 96.5 µM and > 100 µM; in [6], above 100 µM; in test [7], 45.6 µM; in test [8], 66 µM and > 100 µM. Also, the TGI in test [9] is 95.7 µM and > 100 µM; in test [10], 40.4 µM; in test [11] it was above 100 µM; in test [12], above 100 µM; in [13] it was above 100 µM; in test [14], > 100 µM and 57.1 µM. Further, the TGI in test [15] was above 100 µM; in test [20], 49.4 µM and > 100 µM; in test [16], above 100 µM; in [17] it was above 100 µM; in [18], 75.2 µM and > 100 µM; in test [19] it was above 100 µM.

With `O/C(=C\c1nc2ccccc2nc1/C=C(\O)c1ccc(Cl)cc1)c1ccccc1`, the TGI in test [1] is above 100 µM; in [2], above 100 µM; in test [5], above 100 µM; in [6], above 100 µM; in [7], 40.9 µM; in test [8], above 100 µM. Besides, the TGI in test [9] is above 100 µM; in [10], above 100 µM; in [11], 65.4 µM; in test [12] it was above 100 µM; in [13] it was 72.8 µM; in [14], above 100 µM. The TGI in test [15], in [20], in test [17], in test [18] and in test [19] was above 100 µM each time.

Consider `c1ccc(Cc2nc(Cc3n[nH]c(Cc4ccccc4)n3)n[nH]2)cc1`, for which the TGI in test [1], in [2], in test [3], in [6], in [7] and in test [8] was above 100 µM in each case. Moreover, the TGI in [9], in [10], in test [12], in test [13], in test [14] and in test [15] was above 100 µM in each case. For the same compound, the TGI in test [20], in [16], in [17], in test [18] and in test [19] was above 100 µM throughout.
